Consider 25 compounds from US8471005B2 (Cephalon, Inc., priority 2008, dated 2013).

Each structure is given as a SMILES string. Read-outs that look alike come from different tables or passages of the source. Bounds are passed on as bounds.

The target in assay [1] is T1, JAK2 (Homo sapiens, UniProt O60674).
T1 construct: host or cells: baculovirus expression system
In words: Recombinant Human JAK2 Kinase Assay (TRF). The settings on record: read-out: JAK2 Potency. It counts as biochemical. As for the experimental part:
Compounds were tested for their ability to inhibit the kinase activity of baculovirus-expressed JAK2 using the TRF detection system. […] The plates were coated first with 100 μL/well of 10 μg/mL Neutravidin (Pierce #31000, Rockford, Ill.) in TBS at 37° C. for 2 hours, followed by 100 μL/well of 1 μg/mL 15-mer peptide substrate (biotinyl-amino-hexanoyl-[…]-amide, Infinity Biotech Research and Resource, Aston, Pa.) at 37° C. for another hour. The JAK2 assay mixture (total volume=100 μL/well) consisting of 20 mM HEPES (pH 7.2), 0.2 μM ATP, 1 mM MnCl2, 0.1% BSA, and test compound (diluted in DMSO; 2.5% DMSO final in assay) was then added to the assay plate. Enzyme (15 ng/ml JAK2) was added and the reaction was allowed to proceed at room temperature for 20 minutes. Detection of the phosphorylated product was performed by adding 100 μL/well of Eu—N1 labeled PY100 antibody (PerkinElmer Life Sciences #AD0041, Boston, Mass.).

Assay [2] concerns the target T2, ALK (Homo sapiens, UniProt Q9UM73).
T2 construct: host or cells: baculovirus expression system
In words: ALK Kinase Assay (ELISA/TRF, PLC-γ substrate). The format is biochemical. The settings on record: read-out: ALK Potency. As for the experimental part:
Briefly, each 96-well plate was coated with […] of 10 μg/mL substrate (phospholipase C-γ) in Tris-buffered saline (TBS). […] The reaction was initiated by adding enzyme (30 ng/ml ALK) and was allowed to proceed at 37° C. for 15 minutes. Detection of the phosphorylated product was performed by adding 100 μl/well of Eu—N1 labeled PT66 antibody (Perkin Elmer # AD0041).
Data analysis was performed using ActivityBase (IDBS, Guilford, UK). IC50 values were calculated by plotting percent inhibition versus log10 of the concentration of compound and fitting to the nonlinear regression sigmoidal dose-response (variable slope) equation in XLFit (IDBS, Guilford, UK).
(In general: An ELISA detects its analyte on a solid surface through an enzyme-linked reagent.)

Setting [3] is: JAK2 kinase inhibition, 0.2 μM ATP.
Setting [4] is: ALK kinase inhibition, 1 μM ATP.

T1 sequence (O60674 whole entry): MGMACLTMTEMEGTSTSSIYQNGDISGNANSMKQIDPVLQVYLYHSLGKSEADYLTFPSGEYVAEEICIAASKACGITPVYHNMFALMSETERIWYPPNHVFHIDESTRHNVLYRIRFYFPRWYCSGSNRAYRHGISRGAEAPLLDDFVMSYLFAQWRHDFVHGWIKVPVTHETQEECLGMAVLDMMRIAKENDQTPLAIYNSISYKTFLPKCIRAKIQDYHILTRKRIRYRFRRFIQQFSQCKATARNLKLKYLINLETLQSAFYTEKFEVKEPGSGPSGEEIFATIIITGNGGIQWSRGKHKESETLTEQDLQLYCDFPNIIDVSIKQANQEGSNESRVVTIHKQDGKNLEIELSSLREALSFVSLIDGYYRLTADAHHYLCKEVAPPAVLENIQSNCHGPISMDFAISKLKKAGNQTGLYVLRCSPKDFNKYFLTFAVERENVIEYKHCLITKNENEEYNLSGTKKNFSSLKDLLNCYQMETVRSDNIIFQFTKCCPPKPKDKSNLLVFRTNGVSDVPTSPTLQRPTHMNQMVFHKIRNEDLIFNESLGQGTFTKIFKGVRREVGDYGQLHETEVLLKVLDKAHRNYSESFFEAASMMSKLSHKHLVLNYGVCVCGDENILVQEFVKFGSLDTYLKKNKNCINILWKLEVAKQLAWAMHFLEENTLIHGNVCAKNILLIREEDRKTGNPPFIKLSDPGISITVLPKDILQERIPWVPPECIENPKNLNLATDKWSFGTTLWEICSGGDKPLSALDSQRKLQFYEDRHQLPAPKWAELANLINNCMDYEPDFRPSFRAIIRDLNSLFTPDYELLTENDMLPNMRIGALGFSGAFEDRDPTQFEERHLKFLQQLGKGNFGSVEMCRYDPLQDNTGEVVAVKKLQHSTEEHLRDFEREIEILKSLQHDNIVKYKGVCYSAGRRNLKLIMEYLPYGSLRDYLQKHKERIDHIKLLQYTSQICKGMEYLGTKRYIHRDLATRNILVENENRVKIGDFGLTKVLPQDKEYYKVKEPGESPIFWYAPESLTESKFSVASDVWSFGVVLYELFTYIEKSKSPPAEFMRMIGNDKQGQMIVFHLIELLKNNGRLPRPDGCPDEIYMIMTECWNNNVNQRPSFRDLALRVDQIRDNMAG
T2 sequence (Q9UM73 19-1620): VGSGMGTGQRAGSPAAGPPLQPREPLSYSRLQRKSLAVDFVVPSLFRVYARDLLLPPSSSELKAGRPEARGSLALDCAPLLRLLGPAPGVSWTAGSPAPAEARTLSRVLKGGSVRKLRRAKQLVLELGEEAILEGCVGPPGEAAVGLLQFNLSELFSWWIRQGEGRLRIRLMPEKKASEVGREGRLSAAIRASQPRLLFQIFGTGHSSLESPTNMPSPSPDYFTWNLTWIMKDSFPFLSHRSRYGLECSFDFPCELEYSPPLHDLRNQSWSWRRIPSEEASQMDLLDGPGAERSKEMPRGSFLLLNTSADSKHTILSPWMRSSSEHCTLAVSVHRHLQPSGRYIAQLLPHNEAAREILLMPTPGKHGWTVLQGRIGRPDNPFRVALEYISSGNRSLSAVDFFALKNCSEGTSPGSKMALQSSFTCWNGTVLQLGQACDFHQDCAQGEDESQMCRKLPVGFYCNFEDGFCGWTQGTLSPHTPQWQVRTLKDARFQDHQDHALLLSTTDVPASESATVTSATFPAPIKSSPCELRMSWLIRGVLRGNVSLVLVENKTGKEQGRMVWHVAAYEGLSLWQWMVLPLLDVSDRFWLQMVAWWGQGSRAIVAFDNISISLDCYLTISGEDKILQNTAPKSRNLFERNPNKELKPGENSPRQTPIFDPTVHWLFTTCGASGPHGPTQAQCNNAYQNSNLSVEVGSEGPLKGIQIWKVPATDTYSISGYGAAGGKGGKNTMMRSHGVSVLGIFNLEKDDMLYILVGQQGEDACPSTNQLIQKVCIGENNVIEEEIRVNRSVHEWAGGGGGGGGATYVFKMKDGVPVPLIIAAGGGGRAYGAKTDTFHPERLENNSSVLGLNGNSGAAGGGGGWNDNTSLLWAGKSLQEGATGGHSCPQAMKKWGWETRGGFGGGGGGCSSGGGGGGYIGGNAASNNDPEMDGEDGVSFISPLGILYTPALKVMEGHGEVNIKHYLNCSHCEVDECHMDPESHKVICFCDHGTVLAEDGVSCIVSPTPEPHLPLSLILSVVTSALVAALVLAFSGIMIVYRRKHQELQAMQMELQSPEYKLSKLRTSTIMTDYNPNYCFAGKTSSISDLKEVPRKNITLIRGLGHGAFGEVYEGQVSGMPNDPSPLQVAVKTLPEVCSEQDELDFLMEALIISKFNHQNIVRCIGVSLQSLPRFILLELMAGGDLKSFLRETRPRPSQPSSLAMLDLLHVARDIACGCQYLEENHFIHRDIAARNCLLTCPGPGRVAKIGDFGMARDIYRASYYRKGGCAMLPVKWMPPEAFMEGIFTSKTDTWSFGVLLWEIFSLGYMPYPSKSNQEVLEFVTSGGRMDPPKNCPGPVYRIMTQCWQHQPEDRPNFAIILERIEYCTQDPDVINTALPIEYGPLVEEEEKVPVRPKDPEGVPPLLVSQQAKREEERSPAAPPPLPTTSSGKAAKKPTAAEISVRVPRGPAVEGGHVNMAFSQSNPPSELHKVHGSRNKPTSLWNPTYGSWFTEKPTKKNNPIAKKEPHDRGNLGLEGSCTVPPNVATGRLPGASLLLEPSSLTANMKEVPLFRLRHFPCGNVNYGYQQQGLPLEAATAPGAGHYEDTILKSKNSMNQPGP

For the compound `Cc1cc2cnc(Nc3ccc(C4CCN(CC(N)=O)CC4)cc3)nn2c1-c1ccccc1N(C)S(C)(=O)=O` [Example 516, 2-[4-(4-{7-[2-(Methanesulfonyl-methyl-amino)-phenyl]-6-methyl-pyrrolo[2,1-f][1,2,4]triazin-2-ylamino}-phenyl)-piperidin-1-yl]-acetamide], the IC50 is below 100 nM in assay [1] (setting [3]) and 1000 to 10000 nM in assay [2] (setting [4]).

Consider `CN(c1ncccc1-c1ccc2cnc(Nc3ccc(C4CCN(CC(N)=O)CC4)cc3)nn12)S(C)(=O)=O` [Example 1258, 2-[4-(4-{7-[2-(Methanesulfonyl-methyl-amino)-pyridin-3-yl]-pyrrolo[2,1-f][1,2,4]triazin-2-ylamino}-phenyl)-piperidin-1-yl]-acetamide], for which the IC50 in assay [1] (setting [3]) and in assay [2] (setting [4]) was below 100 nM in each case.

`COc1cc(N2CCC(N3CCCC3)CC2)ccc1Nc1ncc2ccc(-c3ccccc3N(C)S(C)(=O)=O)n2n1` [Example 480, N-(2-{2-[2-Methoxy-4-(4-pyrrolidin-1-yl-piperidin-1-yl)-phenylamino]-pyrrolo[2,1-f][1,2,4]triazin-7-yl}-phenyl)-N-methyl-methanesulfonamide]: the IC50 was 1000 to 10000 nM in assay [1] (setting [3]) and below 100 nM in assay [2] (setting [4]).

In the case of `COc1ccc(Nc2ncc3ccc(-c4cc(Cl)ccc4OC)n3n2)cc1` [Example 153, [7-(5-Chloro-2-methoxy-phenyl)-pyrrolo[2,1-f][1,2,4]triazin-2-yl]-(4-methoxy-phenyl)-amine], the IC50 in assay [1] (JAK2 Kinase Inhibition) is below 100 nM; in assay [2] (ALK Kinase Inhibition), above 10000 nM.

On to `Clc1cccc(-c2ccc3cnc(Nc4cccc(N5CCOCC5)c4)nn23)c1` [Example 148, [7-(3-Chloro-phenyl)-pyrrolo[2,1-f][1,2,4]triazin-2-yl]-(3-morpholin-4-yl-phenyl)-amine], for which the IC50 in assay [1] (JAK2 Kinase Inhibition) was below 100 nM; in assay [2] (ALK Kinase Inhibition), 1000 to 10000 nM.

`COc1cc(N2CCC(N3CCOCC3)CC2)ccc1Nc1ncc2ccc(-c3cccc4cccnc34)n2n1` [Example 512, [2-Methoxy-4-(4-morpholin-4-yl-piperidin-1-yl)-phenyl]-(7-quinolin-8-yl-pyrrolo[2,1-f][1,2,4]triazin-2-yl)-amine]: the IC50 in assay [1] (setting [3]) was 1000 to 10000 nM; in assay [2] (setting [4]), 100 to 1000 nM.

In the case of `COc1cc(C2CCNCC2)ccc1Nc1ncc2ccc(-c3ccccc3OC)n2n1` [Example 820, [7-(2-Methoxy-phenyl)-pyrrolo[2,1-f][1,2,4]triazin-2-yl]-(2-methoxy-4-piperidin-4-yl-phenyl)-amine], the IC50 in assay [1] (setting [3]) was 100 to 1000 nM; in assay [2] (setting [4]), below 100 nM.

Regarding `COc1cc([C@H]2CC[C@H](N3CCOCC3)CC2)ccc1Nc1ncc2ccc(-c3ccccc3OC)n2n1` [Example 1247, N-{2-methoxy-4-[trans-4-(morpholin-4-yl)cyclohexyl]phenyl}-7-(2-methoxyphenyl)pyrrolo[2,1-f][1,2,4]triazin-2-amine], the figures for the IC50 in assay [1] (setting [3]) and in assay [2] (setting [4]) were 100 to 1000 nM and below 100 nM, respectively.

On to `COc1cc([C@@H]2CCNC[C@H]2O)ccc1Nc1ncc2ccc(-c3ccccc3OC)n2n1` (racemic) [Example 855, (±)-(3S,4S)-4-{3-Methoxy-4-[7-(2-methoxy-phenyl)-pyrrolo[2,1-f][1,2,4]triazin-2-ylamino]-phenyl}-piperidin-3-ol], for which, in assay [1] (setting [3]), the IC50 was 100 to 1000 nM.

In the case of `COc1cc([C@@H]2CCNC[C@@H]2O)ccc1Nc1ncc2ccc(-c3ccccc3OC)n2n1` (racemic) [Example 835, (±)-(3R,4S)-4-{3-Methoxy-4-[7-(2-methoxy-phenyl)-pyrrolo[2,1-f][1,2,4]triazin-2-ylamino]-phenyl}-piperidin-3-ol], the IC50 in assay [1] (setting [3]) lay in the range of 100 to 1000 nM.

For `COc1cc([C@@]2(O)CCN(C(=O)OC(C)(C)C)C[C@@H]2O)ccc1Nc1ncc2ccc(-c3ccccc3OC)n2n1` (racemic) [Example 831, (±)-(3S,4S)-3,4-Dihydroxy-4-{3-methoxy-4-[7-(2-methoxy-phenyl)-pyrrolo[2,1-f][1,2,4]triazin-2-ylamino]-phenyl}-piperidine-1-carboxylic acid tert-butyl ester], the IC50 in assay [1] (setting [3]) is 100 to 1000 nM.

In the case of `COc1cc([C@@H]2CCN(CCO)C[C@H]2O)ccc1Nc1ncc2ccc(-c3ccccc3OC)n2n1` (racemic) [Example 856, (±)-(3S,4S)-1-(2-Hydroxy-ethyl)-4-{3-methoxy-4-[7-(2-methoxy-phenyl)-pyrrolo[2,1-f][1,2,4]triazin-2-ylamino]-phenyl}-piperidin-3-ol], the IC50 in assay [1] (setting [3]) was below 100 nM.

In the case of `COc1cc([C@@]2(O)CCN(CC(N)=O)C[C@@H]2O)ccc1Nc1ncc2ccc(-c3ccccc3OC)n2n1` (racemic) [Example 849, (±)-2-43S,4S)-3,4-Dihydroxy-4-{3-methoxy-4-[7-(2-methoxy-phenyl)-pyrrolo[2,1-f][1,2,4]triazin-2-ylamino]-phenyl}-piperidin-1-yl)-acetamide], the IC50 in assay [1] (setting [3]) is below 100 nM.

For the compound `COc1ccc(Cl)cc1-c1ccc2cnc(Nc3ccc(C(C)C)c(NC(C)=O)c3)nn12` [Example 302, N-{5-[7-(5-Chloro-2-methoxy-phenyl)-pyrrolo[2,1-f][1,2,4]triazin-2-ylamino]-2-isopropyl-phenyl}-acetamide], in assay [1] (JAK2 Kinase Inhibition), the IC50 is below 100 nM.

Take `COc1cc([C@@H]2CCN(CCO)C[C@@H]2O)ccc1Nc1ncc2ccc(-c3ccccc3OC)n2n1` (racemic) [Example 848, (±)-(3R,4S)-1-(2-Hydroxy-ethyl)-4-{3-methoxy-4-[7-(2-methoxy-phenyl)-pyrrolo[2,1-f][1,2,4]triazin-2-ylamino]-phenyl}-piperidin-3-ol]: in assay [1] (setting [3]), the IC50 was below 100 nM.

For the compound `COc1cc([C@@H]2CCN(CC(N)=O)C[C@@H]2O)ccc1Nc1ncc2ccc(-c3ccccc3OC)n2n1` (racemic) [Example 839, (±)-2-43R,4S)-3-Hydroxy-4-{3-methoxy-4-[7-(2-methoxy-phenyl)-pyrrolo[2,1-f][1,2,4]triazin-2-ylamino]-phenyl}-piperidin-1-yl)-acetamide], in assay [1] (setting [3]), the IC50 is 100 to 1000 nM.

As to `COc1cc(C2CCN(C)CC2O)ccc1Nc1ncc2ccc(-c3ccccc3OC)n2n1` (racemic) [Example 830, (±)-4-{3-Methoxy-4-[7-(2-methoxy-phenyl)-pyrrolo[2,1-f][1,2,4]triazin-2-ylamino]-phenyl}-1-methyl-piperidin-3-ol], the IC50 in assay [1] (setting [3]) was below 100 nM.

Regarding `COc1cc([C@@]2(O)CCN(CC(N)=O)C[C@@H]2O)ccc1Nc1ncc2ccc(-c3ccccc3N(C)S(C)(=O)=O)n2n1` (racemic) [Example 844, (±)-2-[(3S,4S)-3,4-Dihydroxy-4-(4-{7-[2-(methanesulfonyl-methyl-amino)-phenyl]-pyrrolo[2,1-f][1,2,4]triazin-2-ylamino}-3-methoxy-phenyl)-piperidin-1-yl]-acetamide], the IC50 in assay [1] (setting [3]) lay within 100 to 1000 nM.

Consider `COc1cc([C@@]2(O)CCNC[C@@H]2O)ccc1Nc1ncc2ccc(-c3ccccc3OC)n2n1` (racemic) [Example 832, (±)-(3S,4S)-4-{3-Methoxy-4-[7-(2-methoxy-phenyl)-pyrrolo[2,1-f][1,2,4]triazin-2-ylamino]-phenyl}-piperidine-3,4-diol], for which the IC50 in assay [1] (setting [3]) is below 100 nM.

With `CN1CCN(c2ccc(Nc3ncc4cc(-c5cccnc5)cn4n3)cc2)CC1` [Example 1157], the IC50 in assay [1] (setting [3]) was 100 to 1000 nM.

As to `COc1cc([C@@]2(O)CCN(C)C[C@@H]2O)ccc1Nc1ncc2ccc(-c3ccccc3OC)n2n1` (racemic) [Example 829, (±)-(3S,4S)-4-{3-Methoxy-4-[7-(2-methoxy-phenyl)-pyrrolo[2,1-f][1,2,4]triazin-2-ylamino]-phenyl}-1-methyl-piperidine-3,4-diol], in assay [1] (setting [3]), the IC50 is below 100 nM.

For `COc1cc([C@@]2(O)CCNC[C@@H]2O)ccc1Nc1ncc2ccc(-c3ccccc3N(C)S(C)(=O)=O)n2n1` (racemic) [Example 840, (±)-N-(2-{2-[4-((3S,4S)-3,4-Dihydroxy-piperidin-4-yl)-2-methoxy-phenylamino]-pyrrolo[2,1-f][1,2,4]triazin-7-yl}-phenyl)-N-methyl-methanesulfonamide], the IC50 in assay [1] (setting [3]) was 1000 to 10000 nM.

With `CN1CCN(c2ccc(Nc3ncc4ccc(-c5cccc(S(=O)(=O)NC(C)(C)C)c5)n4n3)cc2Cl)CC1` [Example 1411, N-tert-Butyl-3-{2-[3-chloro-4-(4-methyl-piperazin-1-yl)-phenylamino]-pyrrolo[2,1-f][1,2,4]triazin-7-yl}-benzenesulfonamide], in assay [2] (ALK Kinase Inhibition), the IC50 was below 100 nM.

With `CCOc1ccccc1-c1ccc2cnc(Nc3ccc(N4CCC(N5CCOCC5)CC4)cc3OC)nn12` [Example 1447, [7-(2-Ethoxy-phenyl)-pyrrolo[2,1-f][1,2,4]triazin-2-yl]-[2-methoxy-4-(4-morpholin-4-yl-piperidin-1-yl)-phenyl]-amine], in assay [2] (ALK Kinase Inhibition), the IC50 was below 100 nM.

For the compound `COc1ccccc1-c1ccc2cnc(Nc3ccc(N4CCN(C)CC4)c(F)c3)nn12` [Example 90, [3-Fluoro-4-(4-methyl-piperazin-1-yl)-phenyl]-[7-(2-methoxy-phenyl)-pyrrolo[2,1-f][1,2,4]triazin-2-yl]-amine], the IC50 in assay [2] (ALK Kinase Inhibition) was below 100 nM.
